Data from patent US7589220B2, “Inhibitors of the anandamide transporter” (priority 1998, dated 2009).
Read-outs that look alike come from different tables or passages of the source.

Key:
[1] = system: anandamide transporter; assay: substrate translocation of radioactively labeled analogs (FIGS. 1 and 2); type: cell-based; parameters: dose or concentration left out as unconfirmed; conditions: radioactively labeled compounds
[2] = system: anandamide transporter; assay: [3H]anandamide competition assay using a high throughput method; type: cell-based, human
[3] = system: anandamide transporter; assay: [3H]anandamide accumulation in cortical astrocytes in culture; type: cell-based, rat; conditions: for effect on [3H]anandamide accumulation: cortical astrocytes; for prevention of the temperature-sensitive component of [3H]anandamide accumulation: cortical astrocytes in culture
[4] = system: PGE2 carrier; assay: [3H]PGE2 accumulation in neurons or astrocytes; type: cell-based
Text: The bromcresol green, which blocks PGE2 transport, raised the question of whether anandamide accumulation occurred by means of a PGE2 carrier. That this is not the case was shown by the lack of [^3H]PGE2 accumulation in neurons or astrocytes and by the inability of PGE2 to interfere with [^3H]anandamide accumulation.

[5] = system: anandamide transporter; assay: [3H]anandamide accumulation in neurons; type: cell-based, rat
[6] = target: T1, rat cerebral membranes (Rattus norvegicus, UniProt P20272); assay: binding of [3H]WIN-55212-2 to rat cerebral membranes
T1 construct: from tissue; host or cells: rat cerebral membranes
T1 sequence (P20272 whole entry): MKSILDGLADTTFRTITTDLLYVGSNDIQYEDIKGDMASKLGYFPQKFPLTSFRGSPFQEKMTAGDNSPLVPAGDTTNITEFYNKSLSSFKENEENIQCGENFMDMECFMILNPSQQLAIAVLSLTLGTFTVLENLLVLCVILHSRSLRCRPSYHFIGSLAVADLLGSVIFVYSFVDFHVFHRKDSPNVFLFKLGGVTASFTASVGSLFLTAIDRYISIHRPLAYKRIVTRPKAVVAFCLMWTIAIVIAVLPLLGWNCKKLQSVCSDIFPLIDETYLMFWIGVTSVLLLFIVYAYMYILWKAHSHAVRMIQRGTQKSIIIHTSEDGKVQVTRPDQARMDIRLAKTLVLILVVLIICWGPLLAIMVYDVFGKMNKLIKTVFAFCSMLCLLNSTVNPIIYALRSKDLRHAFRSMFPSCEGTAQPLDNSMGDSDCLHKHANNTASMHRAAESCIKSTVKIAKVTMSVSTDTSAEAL

[7] = system: astrocytes; assay: uptake of [3H]ethanolamine in astrocytes; type: cell-based
[8] = system: astrocytes; assay: uptake of [3H]arachidonate in astrocytes; type: cell-based
[9] = Table I, affinity for ligand recognition by the anandamide transporter
[10] = read-out: IC50 (AT inhib.) μM), Table II, anandamide transporter inhibition
[11] = Table II, anandamide transporter inhibition, read-out: IC50 (AT inhib.) μM)
[12] = astrocytes, single high-affinity component

CCCCC/C=C\C/C=C\C/C=C\C/C=C\CCCC(=O)Nc1ccc(O)cc1 [AM404, N-(4-hydroxyphenyl)arachidonamide, reference compound]
transport (translocation) compared with [3H]anandamide [1]: transported as rapidly and effectively as

CCCCC/C=C\C/C=C\C/C=C\C/C=C\CCCNC(=O)c1ccc(O)cc1 [AM1172]
transport (translocation) compared with [3H]anandamide [1]: transported as rapidly and effectively as
IC50 [2, 9]: 2 µM

CCCCC/C=C\C/C=C\C/C=C\C/C=C\CCCCNC(=O)C(C)C [AM1177]
transport (translocation) compared with [3H]anandamide [1]: transported as rapidly and effectively as
IC50 [2, 9]: 5 µM

CCCCC/C=C\C/C=C\C/C=C\C/C=C\CCCC(=O)OC1COC(c2ccccc2)OC1 (centres unmarked) [AM1191]
transport (translocation) compared with [3H]anandamide [1]: transported as rapidly and effectively as
IC50 [2, 9]: 0.8 µM

CCCCCC=CCC=CCC=CCC=CCCCCOC(=O)NC(C)CO (centres unmarked) [Compound 1]
IC50 [2, 10]: 7.1 µM

CCCCCC=CCC=CCC=CCC=CCCCCOC(=O)NC(C)CO (centres unmarked) [Compound 2]
IC50 [2, 10]: 6.4 µM

CCCCCC=CCC=CCC=CCC=CCCCCOC(=O)NCC(C)O (centres unmarked) [Compound 3]
IC50 [2, 10]: 1.5 µM

CCCCCC=CCC=CCC=CCC=CCCCCOC(=O)NCC(C)O (centres unmarked) [Compound 4]
IC50 [2, 10]: 0.4 µM

CCCCCC=CCC=CCC=CCC=CCCCCOC(=O)NC(C)C [Compound 5]
IC50 [2, 10]: 21.9 µM

CCCCCC=CCC=CCC=CCC=CCCCCOC(=O)NC1CC1 [Compound 6]
IC50 [2, 10]: 15.5 µM

CCCCCC=CCC=CCC=CCC=CCCCCOC(=O)NC1CCC1 [Compound 7]
IC50 [2, 10]: 15.5 µM

CCCCCC=CCC=CCC=CCC=CCCCCOC(=O)NC1CCCCC1 [Compound 8]
IC50 [2, 10]: 33 µM

CCCCCC=CCC=CCC=CCC=CCCCCOC(=O)Nc1ccc(O)cc1 [Compound 9]
IC50 [2, 10]: 6.6 µM

CCCCCC=CCC=CCC=CCC=CCCCCOC(=O)NC1=NCCS1 [Compound 10]
IC50 [2, 11]: 8.6 µM

CCCCCC=CCC=CCC=CCC=CCCCCOC(=O)Nc1cccnc1 [Compound 11]
IC50 [2, 10]: 16.1 µM

CCCCCC=CCC=CCC=CCC=CCCCCNC(=O)NCC(C)O (centres unmarked) [Compound 12]
IC50 [2, 10]: 1.78 µM

CCCCCC=CCC=CCC=CCC=CCCCCNC(=O)OCC(C)O (centres unmarked) [Compound 16]
IC50 [2, 10]: 3.29 µM

CCCCC/C=C\C/C=C\C/C=C\C/C=C\CCCC(=O)Nc1nccs1 [Compound 17]
IC50 [2, 11]: 1.7 µM

CCCCC/C=C\C/C=C\C/C=C\C/C=C\CCCC(=O)NC1=NCCS1 [Compound 18]
IC50 [2, 11]: 2.8 µM

CCCCC/C=C\C/C=C\C/C=C\C/C=C\CCCC(=O)Nc1nncs1 [Compound 19]
IC50 [2, 11]: 1.5 µM

CCCCC/C=C\C/C=C\C/C=C\C/C=C\CCCC(=O)Nc1nc2ccccc2s1 [Compound 20]
IC50 [2, 11]: 44.2 µM

CCCCC/C=C\C/C=C\C/C=C\C/C=C\CCCC(=O)Nc1nc(Br)cs1 [Compound 21]
IC50 [2, 11]: 92.3 µM

CCCCC/C=C\C/C=C\C/C=C\C/C=C\CCCC(=O)Nc1ncc([N+](=O)[O-])s1 [Compound 22]
IC50 [2, 11]: 14.1 µM

CCCCC/C=C\C/C=C\C/C=C\C/C=C\CCCC(=O)Nc1nc(C)cs1 [Compound 23]
IC50 [2, 11]: 11.2 µM

CCCCC/C=C\C/C=C\C/C=C\C/C=C\CCCC(=O)Nc1nc(C)c(C)s1 [Compound 24]
IC50 [2, 11]: 26 µM

CCCCC/C=C\C/C=C\C/C=C\C/C=C\CCCC(=O)Nc1nc(C(C)(C)C)cs1 [Compound 25]
IC50 [2, 11]: 24.1 µM

CCCCC[C@H](O)/C=C/[C@H]1[C@H](O)CC(=O)[C@@H]1C/C=C\CCCC(=O)O [PGE2, prostaglandin E2]
interference with [3H]anandamide accumulation [3]: inability
accumulation of [3H]PGE2 [4]: lack

Cc1c(C(=O)NN2CCCCC2)nn(-c2ccc(Cl)cc2Cl)c1-c1ccc(Cl)cc1.Cl [SR-141716-A]
effect on [3H]anandamide accumulation ([3]; 10 μM): no effect
displacement of the higher affinity component of [3H]anandamide accumulation ([5]; neurons, 100 nM): displaced

Cc1c(C(=O)c2cccc3ccccc23)c2cccc3c2n1[C@H](CN1CCOCC1)CO3 [WIN-55212-2]
effect on [3H]anandamide accumulation ([3]; 1 μM): no effect

CCCCC/C=C\C/C=C\C/C=C\C/C=C\CCCC(=O)NCCO [anandamide, Arachidonyl ethanolamide]
Km [3, 12]: 0.32 µM
Vmax [3, 12]: 171 pmol/min per milligram of protein
prevention of the temperature-sensitive component of [3H]anandamide accumulation [3]: prevented
time to reach 50% of maximum accumulation ([5]; neurons and astrocytes): about four
Vmax ([5]; neurons, higher affinity component): 5.9 pmol/min per milligram of protein
Km ([5]; neurons, higher affinity component, read-out: Km): 0.032 µM
maximum accumulation rate, Vmax ([5]; neurons, lower affinity component): 90.9 pmol/min per milligram of protein
Km ([5]; neurons, lower affinity component, read-out: Michaelis constant, Km): 1.2 µM

Cc1c(C2(c3cc(Br)c(O)c(Br)c3C)OS(=O)(=O)c3ccccc32)cc(Br)c(O)c1Br [bromcresol green]
effect on the binding of [3H]WIN-55212-2 [6]: no significant effect
effect on uptake of [3H]ethanolamine [7]: no significant effect
effect on uptake of [3H]arachidonate [8]: no significant effect
mode of inhibition of [3H]anandamide accumulation ([5]; neurons and astrocytes): noncompetitively

CCCCCCCCCCCCCCCC(=O)NCCO [palmitoyl ethanolamide]
prevention of the temperature-sensitive component of [3H]anandamide accumulation [3]: not
